Measured values taken from patent US20170121344A1 (Siga Technologies, Inc., priority 2009, published 2017).
Read-outs that look alike come from different tables or passages of the source.

System: Dengue-2 (Strain New Guinea C)
Experiment: Viral yield assay against Dengue-2 in Vero cells
Assay type: cell-based, Dengue virus
How it was run: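 Yield reduction, Vero; MOI 0.1; compound vs DMSO; 37° C; harvest 48 h p.i.; titer on Vero; EC50 fitted. Other serotypes run the same way.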

[1] = Dengue virus, Vero, 48 h, read-out: Activity (EC50 class) against Dengue-2 Virus in Vero cells
[2] = Dengue virus, Vero cells, MOI 0.1, harvested 48 hours post infection, read-out: Activity (EC50 class) against Dengue-2 Virus in Vero cells
[3] = Dengue virus, DENV2, viral yield assay, Vero cells, MOI 0.1, 48 hours post infection, read-out: Activity (EC50 in μM) DENV-2

COc1ccc(NC(=O)c2sc3nc4c(cc3c2N)CCC4)cc1 [Compound 184, 3-Amino-6,7-dihydro-5H-cyclopenta[b]thieno[3,2-e]pyridine-2-carboxylic acid (4-methoxy-phenyl)-amide]
EC50 [1]: > 25 µM

COc1ccc(-c2cc(-c3ccccc3)nc3sc(C(=O)Nc4ccccc4)c(N)c23)cc1 [Compound 126, 3-Amino-4-(4-methoxy-phenyl)-6-phenyl-thieno[2,3-b]pyridine-2-carboxylic acid phenylamide]
EC50 [2]: > 25 µM

CCCCOc1ccc(NC(=O)c2sc3nc(N)c(C#N)cc3c2N)cc1 [Compound 70, 3,6-Diamino-5-cyano-thieno[2,3-b]pyridine-2-carboxylic acid (4-butoxy-phenyl)-amide]
EC50 [1]: 5 to 25 µM

CN1CCc2nc3sc(C(=O)Nc4nc5ccccc5s4)c(N)c3cc2C1 [Compound 62, 3-Amino-6-methyl-5,6,7,8-tetrahydro-thieno[2,3-b][1,6]naphthyridine-2-carboxylic acid benzothiazol-2-ylamide]
EC50 [2]: < 5 µM

CCCSc1nc2ccc(NC(=O)c3sc4nc(-c5cccc(OC)c5)ccc4c3N)cc2s1 [Compound 568, 3-amino-6-(3-methoxyphenyl)-N-(2-propylsulfanyl-1,3-benzothiazol-6-yl) thieno[2,3-b]pyridine-2-carboxamide]
EC50 [3]: < 5 µM

Cc1ccc(-c2ccc3c(N)c(C(=O)Nc4ccccc4C)sc3n2)cc1 [Compound 637, 3-amino-N-(o-tolyl)-6-(p-tolyl)thieno [2,3-b]pyridine-2-carboxamide]
EC50 [3]: < 5 µM

COc1ccc(Cl)cc1NC(=O)c1sc2nc3c(cc2c1N)CN(C)CC3 [Compound 37, 3-Amino-6-methyl-5,6,7,8-tetrahydro-thieno[2,3-b][1,6]naphthyridine-2-carboxylic acid (5-chloro-2-methoxy-phenyl)-amide]
EC50 [2]: < 5 µM

COc1ccccc1NC(=O)c1sc2nc3c(cc2c1N)CN(C)CC3 [Compound 58, 3-Amino-6-methyl-5,6,7,8-tetrahydro-thieno[2,3-b][1,6]naphthyridine-2-carboxylic acid (2-methoxy-phenyl)-amide]
EC50 [2]: < 5 µM

Nc1c(C(=O)Nc2ccc(F)cc2)sc2nc3c(cc12)CCCCC3 [Compound 116, 3-Amino-6,7,8,9-tetrahydro-5H-1-thia-10-aza-cyclohepta[f]indene-2-carboxylic acid (4-fluoro-phenyl)-amide]
EC50 [1]: > 25 µM

Cc1csc(NC(=O)c2sc3nc4c(cc3c2N)CN(C)CC4)n1 [Compound 39, 3-Amino-6-methyl-5,6,7,8-tetrahydro-thieno[2,3-b][1,6]naphthyridine-2-carboxylic acid (4-methyl-thiazol-2-yl)-amide]
EC50 [2]: < 5 µM

N-(1-adamantyl)-3-amino-6-(2-thienyl) thieno[2,3-b]pyridine-2-carboxamide [Compound 426]
EC50 (viral yield assay, Vero cells, MOI 0.1, 48 hours post infection, read-out: Activity (EC50 in μM) DENV-2): < 5 µM

COc1cccc(-c2ccc3c(N)c(C(=O)Nc4ccc5c(c4)OCO5)sc3n2)c1 [Compound 511, 3-amino-N-(1,3-benzodioxol-5-yl)-6-(3-methoxyphenyl)thieno[2,3-b]pyridine-2-carboxamide]
EC50 [3]: < 5 µM

Nc1c(C(=O)Nc2ccccc2C(F)(F)F)sc2nc3c(cc12)CCCC3 [Compound 254, 3-Amino-5,6,7,8-tetrahydro-thieno[2,3-b]quinoline-2-carboxylic acid (2-trifluoromethyl-phenyl)-amide]
EC50 [2]: > 25 µM

Cc1cc(C)c2c(n1)sc1c(=O)[nH]c(C)nc12 [Compound 153, 2,7,9-Trimethyl-3H-pyrido[3′,2′:4,5]thieno[3,2-d]pyrimidin-4-one]
EC50 [2]: > 25 µM

CN1CCc2nc3sc(C(=O)NC4CC4)c(N)c3cc2C1 [Compound 105, 3-Amino-6-methyl-5,6,7,8-tetrahydro-thieno[2,3-b][1,6]naphthyridine-2-carboxylic acid cyclopropylamide]
EC50 [1]: 5 to 25 µM

CN1CCc2nc3sc(C(=O)Nc4ccc5c(c4)OCO5)c(N)c3cc2C1 [Compound 33, 3-Amino-6-methyl-5,6,7,8-tetrahydro-thieno[2,3-b][1,6]naphthyridine-2-carboxylic acid benzo[1,3]dioxol-5-ylamide]
EC50 [2]: < 5 µM

CC1(C)Cc2nc3sc4c(=O)n(Cc5ccc(Cl)cc5Cl)cnc4c3cc2CO1 [Compound 252, 2-(2,4-Dichloro-benzyl)-8,8-dimethyl-8,9-dihydro-2H,6H-7-oxa-11-thia-2,4,10-triaza-benzo[b]fluoren-1-one]
EC50 [2]: > 25 µM

CC1(C)Cc2nc3sc4c(=O)[nH]cnc4c3cc2CS1 [Compound 232, 8,8-Dimethyl-8,9-dihydro-2H,6H-7,11-dithia-2,4,10-triaza-benzo[b]fluoren-1-one]
EC50 [1]: > 25 µM

COc1ccc(-c2ccc3c(N)c(C(=O)Nc4ccc(Br)c(C)c4)sc3n2)cc1OC [Compound 579, 3-amino-N-(4-bromo-3-methyl-phenyl)-6-(3,4-dimethoxyphenyl)thieno[2,3-b] pyridine-2-carboxamide]
EC50 [3]: < 5 µM

Cc1cc(C)c2c(N)c(C(=O)NCc3ccccc3)sc2n1 [Compound 260, 3-Amino-4,6-dimethyl-thieno[2,3-b]pyridine-2-carboxylic acid benzylamide]
EC50 [1]: > 25 µM

Cc1cc(NC(=O)c2sc3nc(-c4ccc5c(c4)OCO5)ccc3c2N)ccc1Br [Compound 590, 3-amino-6-(1,3-benzodioxol-5-yl)-N-(4-bromo-3-methyl-phenyl)thieno[2,3-b] pyridine-2-carboxamide]
EC50 [3]: < 5 µM

CN(C)c1ccnc2sc3c(=O)n(-c4ccccc4)cnc3c12 [Compound 159, 9-Dimethylamino-3-phenyl-3H-pyrido[3′,2′:4,5]thieno[3,2-d]pyrimidin-4-one]
EC50 [1]: > 25 µM

COC(=O)c1ccccc1NC(=O)c1sc2nc(N)c(C#N)cc2c1N [Compound 133, 2-[(3,6-Diamino-5-cyano-thieno[2,3-b]pyridine-2-carbonyl)-amino]-benzoic acid methyl ester]
EC50 [2]: > 25 µM

Cc1ccc(-c2ccc3c(N)c(C(=O)Nc4ccc(F)cc4)sc3n2)cc1 [Compound 640, 3-amino-N-(4-fluorophenyl)-6-(p-tolyl) thieno[2,3-b]pyridine-2-carboxamide]
EC50 [3]: < 5 µM

COCc1cc(C)nc2sc(C(=O)Nc3ccc4c(c3)OCO4)c(N)c12 [Compound 250, 3-Amino-4-methoxymethyl-6-methyl-thieno[2,3-b]pyridine-2-carboxylic acid benzo[1,3]dioxol-5-ylamide]
EC50 [2]: > 25 µM

Nc1c(C(=O)N2CCOCC2)sc2nc3c(cc12)CCCC3 [Compound 187, (3-Amino-5,6,7,8-tetrahydro-thieno[2,3-b]quinolin-2-yl)-morpholin-4-yl-methanone]
EC50 [1]: > 25 µM

Cc1nc2c(sc3nc4c(cc32)COC(C)(C)C4)c(=O)n1CCN1CCOCC1 [Compound 231, 3,8,8-Trimethyl-2-(2-morpholin-4-yl-ethyl)-8,9-dihydro-2H,6H-7-oxa-11-thia-2,4,10-triaza-benzo[b]fluoren-1-one]
EC50 [1]: > 25 µM

Cc1ccc2c(n1)sc1c(=O)n(-c3cccc(Br)c3)nnc12 [Compound 479, 3-(3-bromophenyl)-7-methylpyrido[3′,2′:4,5]thieno[3,2-d] [1,2,3]triazin-4(3H)-one]
EC50 [3]: < 5 µM

Cc1ccc(NC(=O)c2sc3nc4c(cc3c2N)CN(C)CC4)c(C)c1 [Compound 17, 3-Amino-6-methyl-5,6,7,8-tetrahydro-thieno[2,3-b][1,6]naphthyridine-2-carboxylic acid (2,4-dimethyl-phenyl)-amide]
EC50 [2]: < 5 µM

Cc1cccc(NC(=O)c2sc3nc4c(cc3c2N)CCC4)c1C [Compound 179, 3-Amino-6,7-dihydro-5H-cyclopenta[b]thieno[3,2-e]pyridine-2-carboxylic acid (2,3-dimethyl-phenyl)-amide]
EC50 [1]: > 25 µM

Nc1c(C(=O)Nc2cc(Cl)ccc2Cl)sc2nc(-c3ccc4c(c3)OCO4)ccc12 [Compound 587, 3-amino-6-(1,3-benzodioxol-5-yl)-N-(2,5-dichlorophenyl)thieno[2,3-b]pyridine-2-carboxamide]
EC50 [3]: < 5 µM

CCN(CC)C(=O)c1sc2nc(-c3cccs3)cc(C(F)(F)F)c2c1N [Compound 85, 3-Amino-6-thiophen-2-yl-4-trifluoromethyl-thieno[2,3-b]pyridine-2-carboxylic acid diethylamide]
EC50 [2]: 5 to 25 µM

Nc1c(C(=O)N(CCC(=O)O)c2ccc(Cl)cc2)sc2nc(-c3ccc(Cl)cc3)ccc12 [Compound 355, 3-(N-[3-amino-6-(4-chloro-phenyl)thieno [2,3-b]pyridine-2-carbonyl]-4-chloro-anilino) propanoic acid]
EC50 [3]: < 5 µM

Nc1c(C(=O)Nc2nnc(-c3ccccc3)s2)sc2nc(-c3cccs3)cc(C(F)(F)F)c12 [Compound 5, 3-Amino-6-thiophen-2-yl-4-trifluoromethyl-thieno[2,3-b]pyridine-2-carboxylic acid (5-phenyl-[1,3,4]thiadiazol-2-yl)-amide]
EC50 [2]: < 5 µM

CCN(CC)C(=O)c1sc2nc(C)cc(C)c2c1N [Compound 167, 3-Amino-4,6-dimethyl-thieno[2,3-b]pyridine-2-carboxylic acid diethylamide]
EC50 [2]: > 25 µM

CCOC(=O)N1CCC(NC(=O)c2sc3nc4c(cc3c2N)CN(CC)CC4)CC1 [Compound 275]
EC50 [2]: > 25 µM

COc1ccc(NC(=O)c2sc3nc(-c4cccs4)ccc3c2N)cc1OC [Compound 444, 3-amino-N-(3,4-dimethoxyphenyl)-6-(2-thienyl)thieno[2,3-b]pyridine-2-carboxamide]
EC50 (Dengue virus, DENV2, Vero, 48 h, read-out: Activity (EC50 in μM) DENV-2): < 5 µM

NC(=O)c1sc2nc(-c3cccs3)cc(-c3ccc(F)cc3)c2c1N [Compound 2, 3-Amino-4-(4-fluoro-phenyl)-6-thiophen-2-yl-thieno[2,3-b]pyridine-2-carboxylic acid amide]
EC50 [2]: < 5 µM
